# Experimental data: patent publication US20180071317A1, “USE OF AGENTS THAT ALTER THE PERITUMORAL ENVIRONMENT FOR THE TREATMENT OF CANCER” (SERVICIO ANDALUZ DE SALUD, priority 2011, published 2018)
# Tests used:
# [1] = system: human primary macrophages (PHM); assay: Marker expression (immunohistochemistry) in human primary macrophages with SP alone or with NK1 antagonists; format: cell-based; conditions: SP 1 μM; 48 h
# Procedure: After 48 hours of culture, cells were harvested and cellular paraffin blocks were constructed for immunohistochemical analysis (see Example 1). To analyze the expression of markers EGF, MMP-9, VEGF and IL-8 antibodies were used as follows: EGF (rabbit monoclonal antibody, anti-EGF; 07-1432. Merck-Millipore), MMP-9 (polyclonal rabbit anti-MMP-9: SAB4501896, Sigma-Aldrich), VEGF (mouse monoclonal anti-VEGF, GF25-100UG, Merck-Millipore) and TNF-α (mouse monoclonal anti-TNF-α, number MAB 1021 catalogue, obtained from Merck-Millipore). All of these antibodies were used at a concentration of 1/1000. System for labelling with a secondary antibody specific for the primary antibodies obtained from rabbit or mouse was used, as was necessary in each case, both the Envision (Dako). All experiments were carried out sixfold.
# [2] = system: human primary macrophages (PHM); assay: IL-8 Western blotting in human primary macrophages; format: cell-based; conditions: cultured in the presence of SP
# Source text: Further cells that make up the microenvironment are peritumoral macrophage lineage cells that are of great importance in the development of the microenvironment around the tumor, by interacting with tumor cells to stimulate their growth and spread by secretion into the medium of different markers that promote the expansion and growth of tumors. In this sense the next step was to analyze the effect exerted by the treatment with non-peptide NK1 antagonists in human primary macrophages (PHM) obtained and purified from pleural effusion samples obtained from men with chronic age range between 45 and 55 years. Briefly, the pleural fluid from chronic (rich in macrophages) was centrifuged. […]
# Similar results were obtained in the case of TNF-α, respect to its expression to those obtained using the other markers analyzed: EGF, MMP-9 and VEGF, i.e., the treatment with the non-peptide receptor NK1 inhibited the TNF-α marker expression. Also the presence of IL-8 were determined by Western blotting, as explained in Example 1, using […] primary antibody (AB1427, Merck-Millipore).
# [3] = system: fibroblasts (PHF) co-cultivated with tumor cell lymphoblastic leukemia B (SDI); assay: Marker expression (IHC) in PHF co-cultured with SDI tumor cells; format: cell-based, human; conditions: PHF co-cultivated with SDI + SP
# Procedure: (§1) All cultures were maintained 48 hours, following which the same cells were included in paraffin blocks for subsequent analysis of the expression of different markers by immunohistochemistry (see Example 1). […] All experiments were carried out sixfold. Analyzed markers in fibroblast cells (stromal cells) were: TGF-α, TGF-β1, TGF-β2, TGF-β3, SPARC, MMP-3, MMP-7, MMP-9, MMP-11, MMP-13 and MMP-14.
# [4] = system: cell line C-12210 (microvascular endothelial cells); assay: Proliferation of C-12210 endothelial cell cultures (MTS); format: cell-based, human;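 also: MTS colorimetric read-out in culture wells, absorbance at 492 nm with 690 nm reference, MTS added 90 min before reading, blank without cells, compared with untreated control cells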
# Procedure: Then, to analyze the effect on the proliferation of cultured cells of the cell line C-12210, treatment was carried out for these crops with increasing concentrations of different non-peptide NK1. […] The cell number was quantified using a Coulter counter. C-12210 cells were grown in appropriate medium (PromoCell Growth Medium; Promocell GmbH, Germany) according to the manufacturers instructions in the presence of increasing concentrations of various non-peptide antagonists of NK1 receptors. In tumor cell culture plates included a blank sample (no cells) and a control sample (containing 10^4 cells/ml). To staining for the proliferation assays, 20 μl MTS was added to each the wells of cell culture plates 90 minutes prior to reading in a spectrophotometer samples multiscanner (TECAN Spectra Classic, Barcelona, Spain) at 492 nm (test wavelength) and 690 nm (reference wavelength). Different doses of each NK1 non-peptide were assayed in duplicate and each experiment was performed in sextuplicate.
# [5] = system: fibroblasts (PHF) co-cultured with tumor cells of human endometrial carcinoma (AN3-CA); assay: Marker expression (IHC) in PHF co-cultured with AN3-CA tumor cells; format: cell-based; conditions: co-culture with AN3-CA; SP 1 μM; 48 h;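 also: cultured in fresh healthy-donor blood plasma with added antibiotic-antimycotic, run in six replicates, values give percent of fibroblasts positive for each marker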
# Procedure: as §1
# [6] = system: macrophages in co-culture with cells isolated from primary human tumors; assay: Marker expression (IHC) in macrophages co-cultured with primary human tumor cells (colon, breast, ovarian, lung carcinoma, melanoma); format: cell-based; conditions: SP 1 μM;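 also: macrophages came from pleural or peritoneal washings of the patient who also supplied the tumor cells, and both were co-cultured on fresh blood plasma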
# Procedure: To check that the interaction of tumor cells obtained directly from primary human immune cell/inflammatory (macrophages) cells, obtained from the patient stimulate secretion of substances by these macrophages recognized as important in survival of both cell types and in the progression of tumor cells, co-cultures were performed on fresh blood plasma, immune cell/inflammatory (macrophages) with tumor cells derived from primary tumors. All obtained from the same patient, to build an experimental model similar to human physiology.
# Macrophages were obtained from washing or pleural or peritoneal from the same patient from which the primary tumor cells were obtained in each case.
# [7] = system: fibroblasts (PHF) co-cultured with human glioma tumor cells (GAMG); assay: Marker expression (IHC) in PHF co-cultured with GAMG tumor cells; format: cell-based; conditions: co-culture with GAMG; SP 1 μM; 48 h;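 also: percentage of PHF fibroblasts positive for each marker, cultured in fresh plasma from a healthy donor, six replicates, with fibroblasts cultured alone as reference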
# Procedure: as §1
# [8] = co-culture with cells isolated from breast carcinoma
# [9] = co-culture with cells isolated from colon carcinoma
# [10] = co-culture with cells isolated from lung carcinoma
# [11] = co-culture with cells isolated from melanoma
# [12] = co-culture with cells isolated from ovarian carcinoma
smiles,measurement,setting,value
CSCC[C@H](NC(=O)[C@H](CC(C)C)NC(=O)CNC(=O)[C@H](Cc1ccccc1)NC(=O)[C@H](Cc1ccccc1)NC(=O)[C@H](CCC(N)=O)NC(=O)[C@H](CCC(N)=O)NC(=O)[C@@H]1CCCN1C(=O)[C@H](CCCCN)NC(=O)[C@@H]1CCCN1C(=O)[C@@H](N)CCCNC(=N)N)C(N)=O [SP],macrophages expressing EGF,[1],27.4 ± 1.1%
same,macrophages expressing MMP-9,[1],24.3 ± 1.4%
same,macrophages expressing VEGF,[1],29.6 ± 2.1%
same,"IL-8 expression in macrophages, Western blotting (in words)",[2],showed expression of this marker
same,cells expressing MMP-3,[3],53.4 ± 5.7%
same,cells expressing MMP-7,[3],59.1 ± 4.8%
same,cells expressing MMP-9,[3],59.3 ± 3.4%
same,cells expressing MMP-11,[3],47.4 ± 4.8%
same,cells expressing MMP-13,[3],49.5 ± 6.5%
same,cells expressing MMP-14,[3],53.9 ± 5.5%
same,cells expressing SPARC,[3],56 ± 6.2%
same,cells expressing TGF-α,[3],41.4 ± 3.1%
same,cells expressing TGF-β1,[3],42.5 ± 4.2%
same,cells expressing TGF-β2,[3],50.5 ± 1.1%
same,cells expressing TGF-β3,[3],51.4 ± 5.5%
same,"proliferation, percentage of control ± SD","[4]; SP 10 nM, exposure 0 h",102.2 ± 1%
same,"proliferation, percentage of control ± SD","[4]; SP 10 nM, exposure 24 h",119.1 ± 1.8%
same,"proliferation, percentage of control ± SD","[4]; SP 10 nM, exposure 48 h",139.3 ± 3.1%
same,"proliferation, percentage of control ± SD","[4]; SP 10 nM, exposure 72 h",134.3 ± 2.8%
same,"proliferation, percentage of control ± SD","[4]; SP 100 nM, exposure 0 h",109.5 ± 2.9%
same,"proliferation, percentage of control ± SD","[4]; SP 100 nM, exposure 24 h",17 ± 2.7%
same,"proliferation, percentage of control ± SD","[4]; SP 100 nM, exposure 48 h",21 ± 2.6%
same,"proliferation, percentage of control ± SD","[4]; SP 100 nM, exposure 72 h",32.4 ± 3.3%
same,"proliferation, percentage of control ± SD","[4]; SP 500 nM, exposure 0 h",128.9 ± 2.7%
same,"proliferation, percentage of control ± SD","[4]; SP 500 nM, exposure 24 h",137 ± 3.8%
same,"proliferation, percentage of control ± SD","[4]; SP 500 nM, exposure 48 h",146 ± 4.7%
same,"proliferation, percentage of control ± SD","[4]; SP 500 nM, exposure 72 h",158.5 ± 4.6%
same,"proliferation, percentage of control ± SD","[4]; SP 1 μM, exposure 0 h",175.3 ± 5.2%
same,"proliferation, percentage of control ± SD","[4]; SP 1 μM, exposure 24 h",186 ± 6.3%
same,"proliferation, percentage of control ± SD","[4]; SP 1 μM, exposure 48 h",194.4 ± 6.5%
same,"proliferation, percentage of control ± SD","[4]; SP 1 μM, exposure 72 h",199 ± 5.5%
same,"proliferation, percentage of control ± SD","[4]; SP 50 μM, exposure 0 h",218 ± 3.5%
same,"proliferation, percentage of control ± SD","[4]; SP 50 μM, exposure 24 h",242 ± 6.7%
same,"proliferation, percentage of control ± SD","[4]; SP 50 μM, exposure 48 h",247 ± 6.5%
same,"proliferation, percentage of control ± SD","[4]; SP 50 μM, exposure 72 h",259.4 ± 4.1%
same,"proliferation, percentage of control ± SD","[4]; SP 100 μM, exposure 0 h",236.4 ± 5.6%
same,"proliferation, percentage of control ± SD","[4]; SP 100 μM, exposure 24 h",258 ± 4.5%
same,"proliferation, percentage of control ± SD","[4]; SP 100 μM, exposure 48 h",259.5 ± 4.6%
same,"proliferation, percentage of control ± SD","[4]; SP 100 μM, exposure 72 h",266.9 ± 6.8%
same,effect on growth/proliferation of C-12210 cells (in words),[4]; increasing concentrations,stimulating effect on the growth of human endothelial cells
same,PHF cells expressing MMP-3,[5],44.2 ± 2.7%
same,PHF cells expressing MMP-7,[5],54.4 ± 2.1%
same,PHF cells expressing MMP-9,[5],54.3 ± 1.6%
same,PHF cells expressing MMP-11,[5],29.4 ± 1.8%
same,PHF cells expressing MMP-13,[5],49 ± 3.4%
same,PHF cells expressing MMP-14,[5],45.2 ± 3.5%
same,PHF cells expressing SPARC,[5],49 ± 1.5%
same,PHF cells expressing TGF-α,[5],42.4 ± 2%
same,PHF cells expressing TGF-β1,[5],33.3 ± 3.1%
same,PHF cells expressing TGF-β2,[5],43.5 ± 1.1%
same,PHF cells expressing TGF-β3,[5],44 ± 1.56%
same,Percentage of macrophages which expressed EGF,[6]; [8],41.6 ± 4.2%
same,Percentage of macrophages which expressed MMP-9,[6]; [8],39.5 ± 3.2%
same,Percentage of macrophages which expressed VEGF,[6]; [8],37.4 ± 4.2%
same,Percentage of macrophages which expressed EGF,[6]; [9],41.4 ± 4.2%
same,Percentage of macrophages which expressed MMP-9,[6]; [9],39.5 ± 3.5%
same,Percentage of macrophages which expressed VEGF,[6]; [9],38.5 ± 2.9%
same,Percentage of macrophages which expressed EGF,[6]; [10],38.4 ± 2.9%
same,Percentage of macrophages which expressed MMP-9,[6]; [10],39.4 ± 3.7%
same,Percentage of macrophages which expressed VEGF,[6]; [10],37.4 ± 4.2%
same,Percentage of macrophages which expressed EGF,[6]; [11],41.9 ± 3.2%
same,Percentage of macrophages which expressed MMP-9,[6]; [11],39.5 ± 5.3%
same,Percentage of macrophages which expressed VEGF,[6]; [11],35.4 ± 4.4%
same,Percentage of macrophages which expressed EGF,[6]; [12],41.5 ± 4.2%
same,Percentage of macrophages which expressed MMP-9,[6]; [12],39.5 ± 3.2%
same,Percentage of macrophages which expressed VEGF,[6]; [12],37.4 ± 4%
same,PHF cells expressing MMP-3,[7],43.4 ± 2.8%
same,PHF cells expressing MMP-7,[7],57.1 ± 3.8%
same,PHF cells expressing MMP-9,[7],52.3 ± 2.4%
same,PHF cells expressing MMP-11,[7],27.5 ± 3.8%
same,PHF cells expressing MMP-13,[7],45.4 ± 3.6%
same,PHF cells expressing MMP-14,[7],49.3 ± 3.5%
same,PHF cells expressing SPARC,[7],51.2 ± 3.3%
same,PHF cells expressing TGF-α,[7],42.5 ± 3.1%
same,PHF cells expressing TGF-β1,[7],33.6 ± 3.1%
same,PHF cells expressing TGF-β2,[7],40.7 ± 2.1%
same,PHF cells expressing TGF-β3,[7],51 ± 1.6%
